Patent US20250197461A1, “Insect-derived short peptide for improving abscisic acid (ABA) content in cruciferous plant” (Gannan Normal University, priority 2023, published 2025)

System: Arabidopsis thaliana
Assay: Phytohormone detection in Arabidopsis thaliana leaves treated with short peptide (LC-MS/MS)
Assay type: in vivo
Conditions: 0.01 mg/mL; for ABA content / JA content: compared with GFP control group
Method: A synthetic short peptide of GSS1-PI with the corresponding concentration and mass was weighed and dissolved in 0.1% DMSO to obtain a 0.01 mg/mL treatment solution. A wild-type Arabidopsis thaliana plant of about four weeks old was taken, two cotyledons were collected and mechanically damaged to obtain three small holes, 2 μL of the GSS1-PI treatment solution was added dropwise into each small hole, while the control group was a solution of the same concentration prepared by synthesizing an unrelated short peptide GFP group (GFP-28aa: […], SEQ ID NO: 20) of the same length. After 24 h and 48 h of treatment, approximately 0.2 g of Arabidopsis thaliana leaves were collected, and each treatment had three biological replicates. The leaves were quickly placed in liquid nitrogen and stored in a −80° C. ultra-low temperature refrigerator for subsequent phytohormone group detection.
• a. The cryopreserved biological samples were ground with a grinder (30 Hz, 1 min) until they were in a powder form. • b. 50 mg of the ground sample was weighed and added with 10 μL of an internal standard mixed solution with a concentration of 100 ng/ml and 1 mL of an extractant including methanol/water/formic acid (15:4:1, v/v/v), and mixed well. • c. After vortexing for 10 min, a resulting mixture was centrifuged at 4° C. and 12,000 r/min for 5 min, and a resulting supernatant was transferred to a new centrifuge tube for concentration. • d. After concentration, the concentrated solution was reconstituted with 100 μL of 80% methanol/water solution, the reconstituted solution was filtered through a 0.22 μm filter, and the filtrate was placed in a sampling bottle for LC-MS/MS analysis.
The data acquisition instrument system mainly included ultra-performance liquid chromatography (UPLC) (ExionLC™ AD, //sciex.com.cn/) and tandem mass spectrometry (MS/MS) (QTRAP® 6500+, //sciex.com.cn/).
Liquid phase conditions mainly included: • 1) Chromatographic column: Waters ACQUITY UPLC HSS T3 C18 column (1.8 μm, 100 mm×2.1 mm i.d.); • 2) Mobile phase: phase A, ultrapure water (added with 0.04% acetic acid); phase B, acetonitrile (added with 0.04% acetic acid); • 3) Gradient elution program: 0 min A/B at 95:5 (V/V), 1.0 min A/B at 95:5 (V/V), 8.0 min at 5:95 (V/V), 9.0 min at 5:95 (V/V), 9.1 min at 95:5 (V/V), 12.0 min at 95:5 (V/V); • 4) Flow rate: 0.35 mL/min; column temperature: 40° C.; injection volume: 2 μL.
Electrospray ionization (ESI) ion source temperature was 550° C., the mass spectrometer voltage in the positive ion mode was 5,500 V, the mass spectrometer voltage in the negative ion mode was-4,500 V, and the curtain gas (CUR) was 35 psi. In the Q-Trap 6500+, each ion transition was scanned based on optimized declustering potential (DP) and collision energy (CE).
The quantificative analysis was accomplished using the multiple reaction monitoring mode (MRM, as shown below) of triple quadrupole mass spectrometry. […] And the non-target ion interference was eliminated, so that the quantification was more accurate and reproducible. After obtaining the mass spectrometry data of different samples, the chromatographic peaks of all target substances were integrated and quantitatively analyzed through the standard curve.

In the case of “PDYKQKLRDSKAWESLETIGIPLDADVM (insect-derived short peptide) [GSS1-PI]”, the ABA content (24 h treatment) is reported as “increased significantly”, the JA content (24 h treatment) is reported as “increased significantly” and the ABA content (48 h treatment) is reported as “upward trend but no significant difference”. The JA content (48 h treatment) was “downward trend” and the SA content (before and after treatment) was “no significant change”.
